Measurements taken from ChEMBL document CHEMBL1125470, “Novel sulfonamides as potential, systemically active antitumor agents” (J Med Chem, 1992).
≈ marks a conversion by molar mass, not a printed value.

How the values were obtained:
KB = assay: In vitro inhibitory activity against KB (human carcinoma of the nasopharynx) cell proliferation.; type: functional, cell-based
Mus musculus [1] = assay: Ratio between dead mices and total mices at the dose of 100 (mg/kg/day.); 0/6; type: functional
Mus musculus [2] = assay: Ratio between dead mices and total mices at the dose of 12.5 (mg/kg/day.); 0/6; type: functional
Mus musculus [3] = assay: Ratio between dead mices and total mices at the dose of 25 (mg/kg/day.); 0/6; type: functional
Mus musculus [4] = assay: Ratio between dead mices and total mices at the dose of 50 (mg/kg/day.); 0/6; type: functional
MC-38 [5] = assay: In vitro inhibitory activity against colon 38 cell proliferation; type: functional, cell-based; details: Mus musculus
MC-38 [6] = assay: Ratio between Tumor weight of treated mice and Tumor weight of control mice * 100 at the dose of 100 (mg/kg/day); type: functional
MC-38 [7] = assay: Ratio between Tumor weight of treated mice and Tumor weight of control mice * 100 at the dose of 25 (mg/kg/day); type: functional
MC-38 [8] = assay: Ratio between Tumor weight of treated mice and Tumor weight of control mice * 100 at the dose of 50 (mg/kg/day); type: functional
MC-38 [9] = assay: Ratio between Tumor weight of treated mice and Tumor weight of control mice * 100 at the dose of 12.5 (mg/kg/day); type: functional
Mus musculus [10] = assay: Ratio between dead mices and total mices at the dose of 200 (mg/kg/day.); 0/6; type: functional
Mus musculus [11] = assay: Ratio between dead mices and total mices at the dose of 400 (mg/kg/day.); 0/6; type: functional
MC-38 [12] = assay: Ratio between Tumor weight of treated mice and Tumor weight of control mice * 100 at the dose of 100 (mg/kg/day.); type: functional
MC-38 [13] = assay: Ratio between Tumor weight of treated mice and Tumor weight of control mice * 100 at the dose of 200 (mg/kg/day.); type: functional
MC-38 [14] = assay: Ratio between Tumor weight of treated mice and Tumor weight of control mice * 100 at the dose of 400 (mg/kg/day.); type: functional
Mus musculus [15] = assay: Ratio between dead mices and total mices at the dose of 200 (mg/kg/day.); 2/6; type: functional
MC-38 [16] = assay: Ratio between Tumor weight of treated mice and Tumor weight of control mice * 100 at the dose of 200 (mg/kg/day); type: functional
MC-38 [17] = assay: Ratio between Tumor weight of treated mice and Tumor weight of control mice * 100 at the dose of 50 (mg/kg/day.); type: functional

`COc1ccc(S(=O)(=O)Nc2cccnc2Nc2ccc(O)cc2)cc1` [ABT-751] was tested, and the IC50 (KB) was 0.29 µg/mL (≈ 0.781 µM), the Deaths/total (Mus musculus [1]) was 0 and the Deaths/total (Mus musculus [2]) was 0. The Deaths/total (Mus musculus [3]) was 0, the Deaths/total (Mus musculus [4]) was 0 and the IC50 (MC-38 [5]) was 0.38 µg/mL (≈ 1.02 µM). The T/C (MC-38 [6]) was 2%, the T/C (MC-38 [7]) was 32% and the T/C (MC-38 [8]) was 3%. The T/C (MC-38 [9]) was 59%.

`COc1ccc(S(=O)(=O)Nc2cccnc2Nc2ccncc2)cc1` gave an IC50 (KB) of 1 µg/mL (≈ 2.81 µM), a Deaths/total (Mus musculus [2]) of 0 and a Deaths/total (Mus musculus [3]) of 0. It also gave a Deaths/total (Mus musculus [4]) of 0, an IC50 (MC-38 [5]) of 1.4 µg/mL (≈ 3.93 µM) and a T/C (MC-38 [7]) of 35%. It also gave a T/C (MC-38 [8]) of 14% and a T/C (MC-38 [9]) of 41%.

With `Cc1ccc(S(=O)(=O)Nc2ccccc2Nc2ccccc2)cc1` the IC50 (KB) was 0.46 µg/mL (≈ 1.36 µM) and the IC50 (MC-38 [5]) was 1.2 µg/mL (≈ 3.55 µM).

`Cc1ccc(S(=O)(=O)Nc2cccnc2Nc2ccccc2)cc1` showed an IC50 (KB) of 1.5 µg/mL (≈ 4.42 µM), a Deaths/total (Mus musculus [1]) of 0 and a Deaths/total (Mus musculus [10]) of 0. The Deaths/total (Mus musculus [11]) was 0, the IC50 (MC-38 [5]) was 3.2 µg/mL (≈ 9.43 µM) and the T/C (MC-38 [12]) was 20%. It also gave a T/C (MC-38 [13]) of 19% and a T/C (MC-38 [14]) of 1%.

Work on `COc1ccc(Nc2ncccc2NS(=O)(=O)c2ccc(OC)cc2)cc1` yielded an IC50 (KB) of 1.9 µg/mL (≈ 4.93 µM), a Deaths/total (Mus musculus [1]) of 0 and a Deaths/total (Mus musculus [15]) of 2. For the same compound, the Deaths/total (Mus musculus [4]) was 0, the IC50 (MC-38 [5]) was 3.6 µg/mL (≈ 9.34 µM) and the T/C (MC-38 [12]) was 1%. The T/C (MC-38 [16]) was 0% and the T/C (MC-38 [17]) was 30%.

Work on `COc1ccc(S(=O)(=O)Nc2cccnc2Nc2ccccc2)cc1` yielded an IC50 (KB) of 0.27 µg/mL (≈ 0.76 µM), a Deaths/total (Mus musculus [1]) of 0 and a Deaths/total (Mus musculus [10]) of 0. For the same compound, the Deaths/total (Mus musculus [4]) was 0, the IC50 (MC-38 [5]) was 0.45 µg/mL (≈ 1.27 µM) and the T/C (MC-38 [12]) was 2%. The T/C (MC-38 [13]) was 1% and the T/C (MC-38 [17]) was 27%.
